The target in test [1] is cAMP and cAMP-inhibited cGMP 3',5'-cyclic phosphodiesterase 10A (Homo sapiens, UniProt Q9Y233). The experiment in a line: Inhibition of human recombinant PDE10A using cAMP as substrate incubated for 20 mins measured by Kinase Glo reagent based microplate reader assay.
Test [2] deals with 3',5'-cyclic-AMP phosphodiesterase 4B (Homo sapiens, UniProt Q07343). Briefly: Inhibition of human recombinant PDE4B using cAMP as substrate incubated for 20 mins measured by Kinase Glo reagent based microplate reader assay.
Test [3] deals with High affinity 3',5'-cyclic-AMP phosphodiesterase 7A (Homo sapiens, UniProt Q13946). Briefly: Inhibition of human recombinant PDE7A using cAMP as substrate incubated for 20 mins measured by Kinase Glo reagent based microplate reader assay. On the technique in general: Kinase-Glo reads ATP consumption through a luciferase reaction.
In test [4] the target is Dual specificity calcium/calmodulin-dependent 3',5'-cyclic nucleotide phosphodiesterase 1B (Homo sapiens, UniProt Q01064). Briefly: Inhibition of human recombinant PDE1B using cAMP as substrate incubated for 20 mins measured by Kinase Glo reagent based microplate reader assay.
Test [5] addresses cGMP-dependent 3',5'-cyclic phosphodiesterase (Homo sapiens, UniProt O00408). Briefly: Inhibition of human recombinant PDE2A using cGMP as substrate incubated for 20 mins measured by Kinase Glo reagent based microplate reader assay.
For test [6], the target named is cGMP-inhibited 3',5'-cyclic phosphodiesterase 3A (Homo sapiens, UniProt Q14432). The experiment in a line: Inhibition of human recombinant PDE3A using cAMP as substrate incubated for 20 mins measured by Kinase Glo reagent based microplate reader assay.
Test [7] concerns the target 3',5'-cyclic-AMP phosphodiesterase 4D (Homo sapiens, UniProt Q08499). The experiment in a line: Inhibition of human recombinant PDE4D using cAMP as substrate incubated for 20 mins measured by Kinase Glo reagent based microplate reader assay.
Test [8] deals with cGMP-specific 3',5'-cyclic phosphodiesterase (Homo sapiens, UniProt O76074). Briefly: Inhibition of human recombinant PDE5A using cGMP as substrate incubated for 20 mins measured by Kinase Glo reagent based microplate reader assay.
Test [9] has as its system Mus musculus. The experiment in a line: Hepatoprotective activity in ConA-induced BALB/c hepatitis mouse model assessed as decrease in serum IL-6 level at 50 mg/kg, ip administration and measured after 8 hrs relative to control. The class given is functional, organism-based.
Test [10] has as its system Mus musculus. The experiment in a line: Hepatoprotective activity in ConA-induced BALB/c hepatitis mouse model assessed as decrease in serum alanine aminotransferase level at 50 mg/kg, ip administration and measured after 8 hrs relative to control. The class given is functional, organism-based.
For test [11], the system named is Mus musculus. The experiment in a line: Hepatoprotective activity in ConA-induced BALB/c hepatitis mouse model assessed as decrease in serum aspartate aminotransferase level at 50 mg/kg, ip administration and measured after 8 hrs relative to control. Format: functional, organism-based.
Test [12] has as its system Mus musculus. Briefly: Hepatoprotective activity in ConA-induced BALB/c hepatitis mouse model assessed as decrease in serum alanine aminotransferase level at 10 mg/kg, ip administration and measured after 8 hrs relative to control. Format: functional, organism-based.
Test [13] relates to Mus musculus. The experiment in a line: Hepatoprotective activity in ConA-induced BALB/c hepatitis mouse model assessed as decrease in serum aspartate aminotransferase level at 10 mg/kg, ip administration and measured after 8 hrs relative to control. Format: functional, organism-based.
Test [14] deals with Mus musculus. Briefly: Hepatoprotective activity in ConA-induced BALB/c hepatitis mouse model assessed as decrease in serum IFNgamma level at 50 mg/kg, ip administration and measured after 8 hrs relative to control. The class given is functional, organism-based.
Test [15] relates to Mus musculus. The experiment in a line: Hepatoprotective activity in ConA-induced BALB/c hepatitis mouse model assessed as decrease in serum IL-6 level at 10 mg/kg, ip administration and measured after 8 hrs relative to control. The class given is functional, organism-based.
Test [16] concerns Mus musculus. Briefly: Hepatoprotective activity in ConA-induced BALB/c hepatitis mouse model assessed as decrease in serum IFNgamma level at 10 mg/kg, ip administration and measured after 8 hrs relative to control. Format: functional, organism-based.
The subject of test [17] is Rattus norvegicus. Briefly: Antiinflammatory activity in LPS-induced Wistar rat endotoxemia model assessed as decrease in plasma TNFalpha level at 5 mg/kg, ip measured after 1 hr. The class given is functional. Details: scale not given: the % may be the effect or the level left.
The test system of test [18] is Rattus norvegicus. Briefly: Antiinflammatory activity in LPS-induced Wistar rat endotoxemia model assessed as decrease in plasma TNFalpha level at 5 mg/kg, ip measured after 1.5 hr. The class given is functional. More on the design: scale not given: the % may be the effect or the level left.
The subject of test [19] is Rattus norvegicus. The experiment in a line: Antiinflammatory activity in LPS-induced Wistar rat endotoxemia model assessed as decrease in plasma TNFalpha level at 5 mg/kg, ip measured after 2 hr. The class given is functional. Details: scale not given: the % may be the effect or the level left.
Test [20] in a line: Selectivity index, ratio of IC50 for inhibition of human recombinant PDE4D to IC50 for inhibition of human recombinant PDE4B.
The nature of test [21]: Selectivity index, ratio of IC50 for inhibition of human recombinant PDE3A to IC50 for inhibition of human recombinant PDE4B.

Activity calls are given as the source filed them. The rule behind the calls is not given here. Where only a bound is given, the exact number is not on record here.

3',5'-cyclic-AMP phosphodiesterase 4B, sequence (Q07343 whole entry): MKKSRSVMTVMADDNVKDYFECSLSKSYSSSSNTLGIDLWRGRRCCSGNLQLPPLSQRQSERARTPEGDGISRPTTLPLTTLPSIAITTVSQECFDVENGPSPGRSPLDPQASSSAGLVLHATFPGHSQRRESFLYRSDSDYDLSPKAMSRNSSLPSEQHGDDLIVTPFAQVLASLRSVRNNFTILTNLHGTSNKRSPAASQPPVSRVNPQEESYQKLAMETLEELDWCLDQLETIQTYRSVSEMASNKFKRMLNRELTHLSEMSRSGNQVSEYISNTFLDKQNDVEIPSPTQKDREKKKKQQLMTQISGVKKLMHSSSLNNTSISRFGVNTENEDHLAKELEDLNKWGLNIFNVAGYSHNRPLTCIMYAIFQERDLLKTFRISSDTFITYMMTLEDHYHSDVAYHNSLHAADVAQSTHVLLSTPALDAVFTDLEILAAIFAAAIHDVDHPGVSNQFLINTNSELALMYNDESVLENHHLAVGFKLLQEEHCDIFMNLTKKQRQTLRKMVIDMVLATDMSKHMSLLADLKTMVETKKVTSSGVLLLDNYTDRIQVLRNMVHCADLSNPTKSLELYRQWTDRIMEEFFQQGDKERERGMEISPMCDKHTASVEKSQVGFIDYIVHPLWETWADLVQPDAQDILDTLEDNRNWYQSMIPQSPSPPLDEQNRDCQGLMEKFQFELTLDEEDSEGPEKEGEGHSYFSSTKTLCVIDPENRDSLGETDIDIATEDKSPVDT
Dual specificity calcium/calmodulin-dependent 3',5'-cyclic nucleotide phosphodiesterase 1B, sequence (Q01064 whole entry): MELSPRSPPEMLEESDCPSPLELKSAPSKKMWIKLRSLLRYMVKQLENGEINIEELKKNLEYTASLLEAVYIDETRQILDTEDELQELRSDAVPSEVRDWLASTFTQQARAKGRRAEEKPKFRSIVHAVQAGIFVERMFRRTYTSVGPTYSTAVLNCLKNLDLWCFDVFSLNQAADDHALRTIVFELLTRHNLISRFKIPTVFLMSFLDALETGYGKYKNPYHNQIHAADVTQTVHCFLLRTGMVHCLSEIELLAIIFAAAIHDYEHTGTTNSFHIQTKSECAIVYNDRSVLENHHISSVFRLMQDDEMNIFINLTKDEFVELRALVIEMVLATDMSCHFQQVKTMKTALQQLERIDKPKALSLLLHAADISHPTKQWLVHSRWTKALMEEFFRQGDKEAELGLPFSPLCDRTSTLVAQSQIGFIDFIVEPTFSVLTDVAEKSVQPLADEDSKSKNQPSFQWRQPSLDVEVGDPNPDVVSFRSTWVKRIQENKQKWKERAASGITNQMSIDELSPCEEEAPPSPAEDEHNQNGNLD
High affinity 3',5'-cyclic-AMP phosphodiesterase 7A, sequence (Q13946 whole entry): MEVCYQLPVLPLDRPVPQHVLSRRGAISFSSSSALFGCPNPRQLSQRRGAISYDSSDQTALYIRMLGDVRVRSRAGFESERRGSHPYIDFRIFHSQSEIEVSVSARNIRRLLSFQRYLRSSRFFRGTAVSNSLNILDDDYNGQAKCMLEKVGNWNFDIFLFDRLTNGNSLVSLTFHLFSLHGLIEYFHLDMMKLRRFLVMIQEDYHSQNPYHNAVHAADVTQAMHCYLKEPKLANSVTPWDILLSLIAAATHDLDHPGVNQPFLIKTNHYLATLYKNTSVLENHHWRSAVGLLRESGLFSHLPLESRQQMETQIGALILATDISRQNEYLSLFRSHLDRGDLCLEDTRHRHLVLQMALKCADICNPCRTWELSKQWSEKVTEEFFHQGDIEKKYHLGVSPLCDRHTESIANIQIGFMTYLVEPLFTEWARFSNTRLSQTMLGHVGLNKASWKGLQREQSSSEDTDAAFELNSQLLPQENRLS
cGMP-dependent 3',5'-cyclic phosphodiesterase, sequence (O00408 whole entry): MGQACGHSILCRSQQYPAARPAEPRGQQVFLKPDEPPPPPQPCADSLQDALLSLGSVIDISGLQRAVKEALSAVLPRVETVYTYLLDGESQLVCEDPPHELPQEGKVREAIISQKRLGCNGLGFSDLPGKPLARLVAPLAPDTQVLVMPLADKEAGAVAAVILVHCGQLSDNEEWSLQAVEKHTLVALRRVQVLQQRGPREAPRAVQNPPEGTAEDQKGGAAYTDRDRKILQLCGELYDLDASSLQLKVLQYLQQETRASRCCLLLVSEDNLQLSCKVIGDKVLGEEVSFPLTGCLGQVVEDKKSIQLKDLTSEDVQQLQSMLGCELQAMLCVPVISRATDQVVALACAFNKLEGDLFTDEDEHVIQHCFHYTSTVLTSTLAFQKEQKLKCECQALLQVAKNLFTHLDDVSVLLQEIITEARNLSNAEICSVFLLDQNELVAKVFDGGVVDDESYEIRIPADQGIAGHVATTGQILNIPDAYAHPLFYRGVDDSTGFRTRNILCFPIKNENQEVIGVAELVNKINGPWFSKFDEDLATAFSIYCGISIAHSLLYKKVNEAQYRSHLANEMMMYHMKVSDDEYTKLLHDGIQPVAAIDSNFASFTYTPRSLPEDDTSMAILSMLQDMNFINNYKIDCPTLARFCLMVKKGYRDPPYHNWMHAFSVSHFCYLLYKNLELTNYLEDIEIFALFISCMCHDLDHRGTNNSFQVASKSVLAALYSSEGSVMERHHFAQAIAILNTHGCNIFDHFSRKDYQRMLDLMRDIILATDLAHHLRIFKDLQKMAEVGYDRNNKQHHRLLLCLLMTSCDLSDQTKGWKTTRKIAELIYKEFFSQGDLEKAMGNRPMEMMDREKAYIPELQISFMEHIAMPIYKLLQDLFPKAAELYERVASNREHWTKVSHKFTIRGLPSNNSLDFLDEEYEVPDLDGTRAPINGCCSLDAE
cAMP and cAMP-inhibited cGMP 3',5'-cyclic phosphodiesterase 10A, sequence (Q9Y233 whole entry): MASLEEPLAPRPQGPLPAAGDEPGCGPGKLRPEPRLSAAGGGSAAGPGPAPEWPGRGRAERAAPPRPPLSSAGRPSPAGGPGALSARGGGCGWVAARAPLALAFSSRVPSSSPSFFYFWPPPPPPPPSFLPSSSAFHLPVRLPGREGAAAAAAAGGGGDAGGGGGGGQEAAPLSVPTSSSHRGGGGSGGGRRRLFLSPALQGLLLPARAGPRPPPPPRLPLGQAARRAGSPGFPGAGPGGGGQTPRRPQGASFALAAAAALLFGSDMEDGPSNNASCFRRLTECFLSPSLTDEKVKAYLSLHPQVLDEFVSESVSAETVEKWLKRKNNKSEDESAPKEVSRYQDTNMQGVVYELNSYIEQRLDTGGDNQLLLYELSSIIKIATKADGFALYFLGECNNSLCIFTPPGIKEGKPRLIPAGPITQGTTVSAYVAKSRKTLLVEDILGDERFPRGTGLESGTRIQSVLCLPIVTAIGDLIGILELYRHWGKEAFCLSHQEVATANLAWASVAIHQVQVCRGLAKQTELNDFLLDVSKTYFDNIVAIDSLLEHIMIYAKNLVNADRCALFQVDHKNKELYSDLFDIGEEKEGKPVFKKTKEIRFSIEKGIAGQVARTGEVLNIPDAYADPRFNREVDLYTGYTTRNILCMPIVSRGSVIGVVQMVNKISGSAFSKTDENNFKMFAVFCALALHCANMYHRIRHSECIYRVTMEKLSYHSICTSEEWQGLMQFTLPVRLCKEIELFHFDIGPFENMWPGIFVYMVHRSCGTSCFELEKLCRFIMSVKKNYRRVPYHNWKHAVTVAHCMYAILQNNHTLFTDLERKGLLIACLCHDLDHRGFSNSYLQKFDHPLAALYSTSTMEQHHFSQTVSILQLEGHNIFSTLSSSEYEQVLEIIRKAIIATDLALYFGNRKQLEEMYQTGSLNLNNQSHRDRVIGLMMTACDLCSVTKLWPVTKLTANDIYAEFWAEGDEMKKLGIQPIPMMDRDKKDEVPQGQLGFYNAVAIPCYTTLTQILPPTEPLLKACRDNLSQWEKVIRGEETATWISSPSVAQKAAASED
cGMP-inhibited 3',5'-cyclic phosphodiesterase 3A, sequence (Q14432 whole entry): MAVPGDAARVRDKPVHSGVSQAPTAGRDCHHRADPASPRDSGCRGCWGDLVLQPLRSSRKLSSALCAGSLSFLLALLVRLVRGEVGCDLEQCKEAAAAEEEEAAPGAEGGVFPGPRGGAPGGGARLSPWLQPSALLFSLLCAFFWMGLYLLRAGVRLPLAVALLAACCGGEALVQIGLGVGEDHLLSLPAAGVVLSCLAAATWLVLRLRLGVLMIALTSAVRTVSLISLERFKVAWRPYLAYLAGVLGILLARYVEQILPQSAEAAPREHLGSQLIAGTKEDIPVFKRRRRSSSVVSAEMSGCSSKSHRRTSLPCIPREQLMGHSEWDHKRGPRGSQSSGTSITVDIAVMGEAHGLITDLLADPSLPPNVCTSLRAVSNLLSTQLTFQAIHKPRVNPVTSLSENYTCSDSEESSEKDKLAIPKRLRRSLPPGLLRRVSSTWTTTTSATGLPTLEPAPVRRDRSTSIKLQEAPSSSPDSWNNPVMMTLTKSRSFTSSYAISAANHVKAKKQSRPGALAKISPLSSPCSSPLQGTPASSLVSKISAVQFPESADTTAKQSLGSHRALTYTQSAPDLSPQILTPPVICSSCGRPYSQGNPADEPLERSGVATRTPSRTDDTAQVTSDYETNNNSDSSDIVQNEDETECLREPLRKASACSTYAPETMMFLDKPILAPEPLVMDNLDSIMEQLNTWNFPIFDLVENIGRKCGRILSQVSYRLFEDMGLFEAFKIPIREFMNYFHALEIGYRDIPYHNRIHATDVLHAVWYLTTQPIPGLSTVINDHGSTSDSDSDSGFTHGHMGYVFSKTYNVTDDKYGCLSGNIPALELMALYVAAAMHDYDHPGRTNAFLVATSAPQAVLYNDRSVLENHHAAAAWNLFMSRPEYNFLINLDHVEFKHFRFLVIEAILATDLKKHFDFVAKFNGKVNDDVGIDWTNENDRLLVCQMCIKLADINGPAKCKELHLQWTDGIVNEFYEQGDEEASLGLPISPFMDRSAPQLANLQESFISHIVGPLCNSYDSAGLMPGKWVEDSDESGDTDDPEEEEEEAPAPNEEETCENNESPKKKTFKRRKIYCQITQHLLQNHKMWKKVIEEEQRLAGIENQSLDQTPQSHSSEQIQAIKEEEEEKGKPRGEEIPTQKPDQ

With `CCCCCn1c(-c2ccco2)nc2c(N(C)CCCO)nccc21`, the half-maximal inhibitory concentration (IC50) (commonly the concentration needed to halve the response being measured) amounted to 2.95 µM in test [1]; 3.48 µM in test [2]; 7.24 µM in [3]; 2.3 µM in [4]; 21.8 µM in test [5]; 9.92 µM in test [6]. Further, the figures for the IC50 in test [7] and in test [8] were 25.8 µM and 2.91 µM, respectively. Besides, in the test on Mus musculus [9], the result was inactive.

Regarding `CCCCCn1c(-c2ccco2)nc2c(NCCCO)ccnc21`, the IC50 is 49.7 µM in test [2] and 63.6 µM in [3].

For the compound `CCCCCn1c(-c2ccco2)nc2c(N(C)CCCO)ccnc21`, the half-inhibitory concentration (IC50) amounted to 18 µM in test [2] and 18.8 µM in [3].

For `CCCCCn1c(-c2ccco2)nc2c(NCCOC)ccnc21`, the figures for the IC50 in [2] and in [3] were 9.77 µM and more than 200 µM, respectively.

For the compound `CCCCCC[C@H]([C@H](C)O)n1cnc2c(N)ncnc21` [(+)-EHNA], the half-maximal inhibitory concentration (IC50) in [5] came out at 2.62 µM.

On to `c1coc(-c2nc3c(NCCc4cccs4)nccc3n2C2CCCC2)c1`, for which the 50% inhibitory concentration (IC50) in test [2] was 2.8 µM; in test [3], more than 200 µM.

As for `COCCCNc1nccc2c1nc(-c1ccco1)n2C1CCCC1`, the results for the IC50 in test [2] and in test [3] were 19.9 µM and 142 µM, respectively.

Regarding `COCCCNc1ccnc2c1nc(-c1ccco1)n2C1CCCC1`, the values for the IC50 in test [2] and in test [3] were 8.6 µM and 90.5 µM, respectively.

For the compound `CCCCCn1c(-c2ccco2)nc2c(NCc3ccccc3)nccc21`, the half-inhibitory concentration (IC50) in [2] was 8.34 µM; in test [3] it was more than 200 µM.

Turning to `CCOC(=O)C1=C[C@]2(CC)CCCN3CCc4c(n1c1ccccc41)[C@@H]32` [VINPOCETINE], in test [4], the half-maximal inhibitory concentration (IC50) is 7.99 µM.

As to `Nc1ccnc2c1nc(-c1ccccc1)n2CCCO`, the 50% inhibitory concentration (IC50) in test [2] was 100 µM; in [3] it was more than 200 µM.

Take `CCCCCn1c(-c2ccc([N+](=O)[O-])cc2)nc2c(N)ccnc21`: the half-maximal inhibitory concentration (IC50) in test [2] and in test [3] was more than 200 µM throughout.

As to `CCCCCn1c(-c2ccccc2)nc2c(N)ccnc21`, the values for the half-inhibitory concentration (IC50) in test [2] and in test [3] were 29 µM and more than 200 µM, respectively.

With `CCCCCn1c(-c2ccccc2)nc2c(NCc3ccccc3)nccc21`, the concentration for half-maximal inhibition (IC50) was 102 µM in test [2] and more than 200 µM in test [3].

For `CCCCCn1c(-c2ccccc2)nc2c(NCCc3cccs3)nccc21`, the IC50 was 15.6 µM in test [2] and more than 200 µM in test [3].

Take `CCCCCn1c(-c2ccco2)nc2c(NCCCOC)nccc21`: the IC50 in test [2] is 12.6 µM; in test [3], 83.3 µM.

Consider `COc1ccc(C2CNC(=O)C2)cc1OC1CCCC1` (stereo not given) [ROLIPRAM], for which the result with Mus musculus [10], with Mus musculus [11], in the test on Mus musculus [12], in the test on Mus musculus [13], with Mus musculus [9] and in the test with Mus musculus [14] was Active. For the same compound, the outcome with Mus musculus [15] and in the test with Mus musculus [16] was Active. Also, the Activity is reported as 85.6% in the test on Rattus norvegicus [17], 73.5% in the test on Rattus norvegicus [18] and 77.1% in the test with Rattus norvegicus [19].

As for `OCCCNc1nccc2c1nc(-c1ccco1)n2C1CCCC1`, the concentration for half-maximal inhibition (IC50) in [2] is 19 µM; in test [3] it was more than 200 µM.

For `CCCCCn1c(-c2ccco2)nc2c(N)ccnc21`, the IC50 in [2] was 39.9 µM; in test [3] it was more than 200 µM.

As to `CNc1nc(C(F)(F)F)nc2c1ncn2Cc1ccccc1F`, in test [2], the concentration for half-maximal inhibition (IC50) was 0.042 µM.

In the case of `Nc1nc(O)c2nc(Br)n(C3CCCc4cccc(Br)c43)c2n1` (stereo not given), the half-maximal inhibitory concentration (IC50) in [3] was 1.31 µM.

Turning to `CCCCCn1c(-c2ccccc2)nc2c(NCCCO)ccnc21`, the IC50 was 23.2 µM in test [2] and more than 200 µM in test [3].

Regarding `CCCCCn1c(-c2ccco2)nc2c(NCc3ccccc3)ccnc21`, the concentration for half-maximal inhibition (IC50) was 8.66 µM in test [2] and more than 200 µM in test [3].

Regarding `CCCCCn1c(-c2ccccc2)nc2c(NCCc3cccs3)ccnc21`, the IC50 was 7.09 µM in [2] and more than 200 µM in [3].

For the compound `CCCCCn1c(-c2ccco2)nc2c(NCCCOC)ccnc21`, the half-inhibitory concentration (IC50) in test [1] is 9.97 µM; in test [2], 3.53 µM; in [3], 34.2 µM; in test [4] it was 0.36 µM; in test [5], 6.85 µM; in [6], 40.6 µM. Besides, the IC50 in test [7] worked out at 27.2 µM; in test [8], 53.5 µM. For the same compound, the Ratio IC50 in test [20] was 10; in [21], more than 10.

As to `CCCCCn1c(-c2ccccc2)nc2c(NCCCO)nccc21`, the IC50 in [2] was 60 µM; in [3], more than 200 µM.

On to `CCCCCn1c(-c2ccc(OC)cc2)nc2c(N)ccnc21`, for which the IC50 in [2] is 41.5 µM; in test [3], more than 200 µM.

Turning to `Nc1ccnc2c1nc(-c1ccccc1)n2CCN1CCCCC1`, the 50% inhibitory concentration (IC50) in test [2] is 103 µM; in test [3] it was more than 200 µM.

Turning to `Cc1ccc([N+](=O)[O-])cc1S(=O)(=O)N(C)C`, the half-inhibitory concentration (IC50) in test [3] is 2.32 µM.

For `c1coc(-c2nc3c(NCCc4cccs4)ccnc3n2C2CCCC2)c1`, the half-inhibitory concentration (IC50) in test [2] is 3.25 µM; in test [3] it was more than 200 µM.

Take `COCCNc1nccc2c1nc(-c1ccco1)n2C1CCCC1`: the IC50 turned out to be 18.1 µM in test [2] and 192 µM in test [3].

Take `COCCNc1ccnc2c1nc(-c1ccco1)n2C1CCCC1`: the results for the IC50 in test [2] and in [3] were 5.41 µM and 119 µM, respectively.

As for `CCCCCn1c(-c2ccccc2)nc2c(NCc3ccccc3)ccnc21`, the IC50 in [2] is 16.9 µM; in test [3], more than 200 µM.

Source of the values: ChEMBL document CHEMBL4732047, “New imidazopyridines with phosphodiesterase 4 and 7 inhibitory activity and their efficacy in animal models of inflammatory and autoimmune diseases” (Eur J Med Chem, 2021).
